Experimental findings from patent publication EP0619297B1, “Fungicides for the control of take-all desease of plants” (MONSANTO COMPANY, priority 1993, dated 1994) are described below.

Like-named read-outs stand apart in the source and are kept apart here. Some results are limits rather than exact numbers.

One experiment deals with Ggt. The experiment can be described thus: In vivo assay: control of Ggt on wheat in 3-inch pots with infested soil, rated after four weeks.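 On In vivo(ppm) 0.1, percent disease control: rate is mg active ingredient per pot in 3 mL solution not ppm.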 Also on record: species or system Gaeumannomyces graminis var. tritici. Particulars: Gaeumannomyces graminis, 672 h; for pest or weed control at 0.1 mg/pot: read-out: In vivo(ppm) 0.1, percent disease control; for pest or weed control at 0.5 mg/pot: read-out: In vivo(ppm) 0.5, percent disease control. As to the method:
Compounds are tested for control of Ggt on 'Bergen' or 'Anza' varieties of wheat grown in 3-inch square pots containing soil infested with Ggt. The infestation is accomplished by mixing the soil with an inoculum prepared by growing Ggt on 1/4 strength potato dextrose agar (4.875 g potato dextrose agar, 5.0 g Bacto agar, 500 mL distilled, deionized water) in plates and using plugs from the plates to infest sterile oats (400 cc whole oats, 350 mL deionized water, autoclaved). After a one-month incubation period at room temperature, the oats are dried and mixed with the soil at 4% v/v. Four wheat seeds are placed on top of the soil in each pot. […] Five pots are used for each treatment level and the controls, which are untreated, inoculated and non-inoculated pots. After one hour drying time, the seeds are covered with more of the appropriate soil and a layer of vermiculite. The pots are placed in a growth chamber and watered each day. After four weeks, each pot is evaluated for evidence of disease by examination of the seminal roots of each plant under a dissecting microscope. A 0 to 5 rating scale having the following meanings is used: • 0 = no runner hyphae or lesions present • 1 = runner hyphae and a few small lesions present on <10% of root system • 2 = runner hyphae and small lesions present on 10 - 25% of root system • 3 = runner hyphae and lesions present on 25 - 50% of root system • 4 = runner hyphae and many, large, coalescing lesions on >50% of root system • 5 = root system and culm completely inundated with lesions and runner hyphae
From each set of five replicates a high or low score may be eliminated to assure the best representative scores are used to calculate a replicate mean by averaging the remaining scores. This mean score is then compared to the untreated control score and a percent disease control is calculated.

Experiment [1] concerns Gaeumannomyces graminis var. tritici (Ggt). The experiment can be described thus: In vitro assay: mycelial growth on minimal media agar plates (Percent Inhibition; IC50). Particulars: for inhibition at 0.1 ppm: read-out: In vitro(ppm) 0.1, Percent Inhibition; for inhibition at 1 ppm: read-out: In vitro(ppm) 1, Percent Inhibition; for inhibition at 10 ppm: read-out: In vitro(ppm) 10, Percent Inhibition. The format is cell-based. The procedure: The test compounds (0.25 mL of an appropriate stock solution in acetone) are incorporated into 25 mL minimal media agar [prepared by autoclaving a solution of 17.5 g Czapek Dox broth (Difco), 7.5 g purified agar or Bacto-agar (Difco), and 500 mL distilled/deionized water, and then adding 50 µL of 1 mg/mL thiamine hydrochloride and 50 µL of 1 mg/mL biotin in 5% ethanol] and plates are prepared.
Each plate is inoculated by placing in a triangular shape three 4-mm plugs of Gaeumannomyces graminis var. tritici (Ggt) grown on the minimal media agar described above. The plates are incubated in the dark at 19 - 20 °C for 4 to 5 days. The growth of the fungus is measured as the diameter of the mycelial growth. The result is expressed as Percent Inhibition, calculated as [1 - [(mm growth on treated plate - 4)/(mm growth on control plate - 4)]] x 100.
To determine IC5O values, an in vitro assay was run on each compound at the concentrations of 1, 0.1, 0.01, 0.001, and 0.0001 ppm. The percent inhibition was calculated for each concentration using the equation described in the in vitro assay under the section on Biological Assays. Using the two ordered pairs of (concentration, % inhibition) that bracket 50% inhibition of fungal growth, the concentration for 50% inhibition is calculated from the following equation. IC50 = [(50-I2 )C1 + (I1 -50)C2 ]/(I1 -I2 ), [formula] where C1 = 10C2.

[2] abbreviates: 0.1 ppm in agar, 19 - 20 °C, 4 to 5 days.
Where [3] appears, read: 1 ppm in agar, 19 - 20 °C, 4 to 5 days.
[4] abbreviates: 10 ppm in agar, 19 - 20 °C, 4 to 5 days.

Take `CCNC(=O)c1c([Si](C)(C)C)cc(F)c2ccccc12` [Example 1, N-Ethyl-4-fluoro-2-(trimethylsilyl)-1-naphthalenecarboxamide]: in the experiment with Ggt (soil), the pest or weed control at 0.1 mg/pot came out at 18%. Besides, in experiment [1], the inhibition (in general, the percentage by which the read-out fell short of the control) at 0.1 ppm came out at 0%; the inhibition at 1 ppm amounted to 79%; the inhibition at 10 ppm is 79%.

Consider `CCN(CC)C(=O)c1c([Si](C)(C)CI)ccc2ccccc12` [Example 2, N,N-Diethyl-2-[(iodomethyl)dimethylsilyl]-1-naphthalenecarboxamide], for which, in the experiment with Ggt (soil), the pest or weed control at 0.1 mg/pot was less than 0% and the pest or weed control at 0.5 mg/pot was less than 0%. Besides, in experiment [1], the inhibition at 0.1 ppm came out at 15%, the inhibition at 1 ppm came to 46% and the inhibition at 10 ppm turned out to be 100%.

As to `CCN(CC)C(=O)c1c([Si](C)(C)C)ccc2ccccc12` [Example 3, N,N-Diethyl-2-(trimethylsilyl)-1-naphthalenecarboxamide], in the experiment with Ggt (soil), the pest or weed control at 0.5 mg/pot was 68%. In experiment [1], the inhibition at 0.1 ppm was found to be 0%, the inhibition at 1 ppm is 0% and the inhibition at 10 ppm is 100%.

In the case of `CCNC(=O)c1c([Si](C)(C)C)ccc2ccccc12` [Example 4, N-Ethyl-2-(trimethylsilyl)-1-naphthalenecarboxamide], in the experiment with Ggt (soil), the pest or weed control at 0.1 mg/pot was found to be 85% and the pest or weed control at 0.5 mg/pot came out at 99%. Further, in experiment [1], the inhibition at 0.1 ppm was determined as 100%, the inhibition at 1 ppm amounted to 100% and the inhibition at 10 ppm worked out at 100%.

Turning to `CCNC(=O)c1cc2ccccc2cc1[Si](C)(C)C` [Example 5, N-Ethyl-3-(trimethylsilyl)-2-naphthalenecarboxamide], in the experiment on Ggt (soil), the pest or weed control at 0.1 mg/pot is 18% and the pest or weed control at 0.5 mg/pot came to 27%. For the same compound, in experiment [1], the inhibition at 0.1 ppm came out at 0%, the inhibition at 1 ppm was determined as 94% and the inhibition at 10 ppm came to 100%.

As to `CCNC(=O)c1c(OC(C)(C)C)ccc2ccccc12` [Example 6, 2-(1,1-Dimethylethoxy)-N-ethyl-1-naphthalenecarboxamide], the pest or weed control at 0.1 mg/pot in the experiment with Ggt (rate 0.1 (head prints ppm, head line ends mg/pot), wheat, soil infested with Ggt, after four weeks, N = no control) worked out at 53%. Moreover, the inhibition at 0.1 ppm in experiment [1] (setting [2]) came out at 21%. Moreover, in experiment [1] (setting [3]), the inhibition at 1 ppm was determined as 86%. Also, in experiment [1] (setting [4]), the inhibition at 10 ppm was determined as 93%.

In the case of `CCNC(=O)n1c([Si](C)(C)C)cc2ccccc21` [Example 7, N-Ethyl-2-(trimethylsilyl)-1H-indole-1-carboxamide], in the experiment with Ggt (soil), the pest or weed control at 0.1 mg/pot was determined as 40% and the pest or weed control at 0.5 mg/pot was 79%. Further, in experiment [1], the inhibition at 0.1 ppm was 88%, the inhibition at 1 ppm is 100% and the inhibition at 10 ppm is 100%.

Consider `CCNC(=O)c1c([Si](C)(C)C)n(C)c2ccccc12` [Example 10, N-Ethyl-1-Methyl-2-(trimethylsilyl)-1H-indole-3-carboxamide], for which, in experiment [1], the inhibition at 0.1 ppm came out at 13%, the inhibition at 1 ppm stood at 80% and the inhibition at 10 ppm turned out to be 85%.

For the compound `CCNC(=O)c1oc2ccccc2c1[Si](C)(C)C` [Example 11, N-Ethyl-3-(trimethylsilyl)-2-benzofurancarboxamide], in experiment [1], the inhibition at 0.1 ppm was determined as 27%, the inhibition at 1 ppm came out at 42% and the inhibition at 10 ppm turned out to be 82%.

Take `CCNC(=O)C1=C([Si](C)(C)C)S(=O)(=O)c2ccccc21` [Example 15, N-Ethyl-2-(trimethylsilyl)benzo[b]thiophene-3-carboxamide 1,1-dioxide]: in experiment [1], the inhibition at 0.1 ppm is 10%, the inhibition at 1 ppm came to 30% and the inhibition at 10 ppm amounted to 83%.

Turning to `CCNC(=O)c1c(OC2(C)CCCCC2)ccc2ccccc12` [Example 38, N-ethyl 2-[(1-methyl-1-cyclohexyl)oxy]-1-naphthamide], the inhibition at 0.1 ppm in experiment [1] (setting [2]) amounted to 0%. Further, the inhibition at 1 ppm in experiment [1] (setting [3]) is 43%. The inhibition at 10 ppm in experiment [1] (setting [4]) was determined as 30%.

For the compound `CCNC(=O)c1c([Si](C)(C)C)ccc2ccoc12` [Example 44, N-ethyl 6-trimethylsilyl benzofuran-7-carboxamide], in experiment [1], the inhibition at 0.1 ppm stood at 98%, the inhibition at 1 ppm was 98% and the inhibition at 10 ppm worked out at 100%.
